Our source for the Activity and Time values is ChEMBL document CHEMBL3046906, “Effects of acibenzolar-S-methyl on the suppression of Fusarium wilt of cyclamen” (Crop Prot, 2006).

Data set [1] concerns Cyclamen persicum. Briefly: Phytotoxicity in Cyclamen persicum seedlings assessed as decrease in effect on flower quality at 10 to 50 ug a.i/ml applied as spray. It is filed as organism-based. The following applies: in vivo, other.
The subject of data set [2] is Cyclamen persicum. Put plainly: Phytotoxicity in Cyclamen persicum seedlings assessed as decrease in effect on flower number at 10 to 50 ug a.i/ml applied as spray. It is filed as organism-based. The following applies: in vivo, other.
For data set [3], the system named is Cyclamen persicum. Briefly: Phytotoxicity in Cyclamen persicum seedlings assessed as decrease in foliar dry mass at 10 to 50 ug a.i/ml applied as spray. It is filed as organism-based. Further details: scale not given: the % may be the effect or the level left. The following applies: in vivo, other.
Data set [4] has as its system Fusarium oxysporum f. sp. cyclaminis. Briefly: Antifungal activity against Fusarium oxysporum f. sp. cyclaminis infested cyclamen seedlings assessed as increase in foliar dry mass at 10 to 50 ug a.i/ml applied as spray. The data set is classed as functional, organism-based.
Data set [5] deals with Cyclamen persicum. Briefly: Phytotoxicity in Cyclamen persicum seedlings assessed as decrease in foliar dry mass at 50 ug a.i/ml applied as spray. The data set is classed as organism-based. Further details: scale not given: the % may be the effect or the level left. The following applies: in vivo, other.
Data set [6] concerns Fusarium oxysporum f. sp. cyclaminis. Briefly: Antifungal activity against 1 CFU of Fusarium oxysporum f. sp. cyclaminis infested cyclamen seedlings assessed as increase in foliar dry mass at 50 ug a.i/ml applied as spray relative to untreated control. It is filed as functional, organism-based.
Data set [7] shares this test system. Put plainly: Antifungal activity against […] of Fusarium oxysporum f. sp. cyclaminis infested cyclamen seedlings assessed as delay in development of disease symptoms at 50 ug a.i/ml applied as spray relative to untreated control. It is filed as functional, organism-based.
The test system is the same in data set [8]. Put plainly: Antifungal activity against 1 CFU of Fusarium oxysporum f. sp. cyclaminis infested cyclamen seedlings assessed as delay in development of decrease severity at 50 ug a.i/ml applied as spray. The data set is classed as functional, organism-based.
For data set [9], the system named is Cyclamen persicum. Put plainly: Phytotoxicity in Cyclamen persicum seedlings assessed as visible damage on leaves at 10 to 50 ug a.i/ml applied as spray. It is filed as organism-based. The conditions noted are these: in vivo, topical_or_ocular.
Data set [10] concerns Fusarium oxysporum f. sp. cyclaminis. Put plainly: Antifungal activity against Fusarium oxysporum f. sp. cyclaminis infested cyclamen seedlings assessed as delay in development of disease symptoms at 50 ug a.i/ml applied as spray. It is filed as functional.

The structures appear in SMILES notation. Calls of active or inactive are those of the source. No cut-off for these calls is given here.

As for `CSC(=O)c1cccc2nnsc12` [ACIBENZOLAR-S-METHYL], the Activity result in the data set with Cyclamen persicum [1] is “Non-toxic”; in the data set on Cyclamen persicum [2] it was “Non-toxic”; with Cyclamen persicum [3], 36%; with Cyclamen persicum [5], 65%; in the data set with Cyclamen persicum [9], “Non-toxic”. The result in [4], in [6], in [7] and in data set [8] was Active. Moreover, in data set [10], the Time came to 20 days.
